Reference: paper PMC2862721, “The Tegument of the Human Parasitic Worm Schistosoma mansoni as an Excretory Organ: The Surface Aquaporin SmAQP Is a Lactate Transporter” (PLoS ONE, 2010)

Tests used:
SmAQP = target: T1, SmAQP (Schistosoma mansoni, UniProt C4PYI6); experiment: inhibition of radiolabelled lactate uptake in Xenopus oocytes, variable-slope fit; assay type: cell-based; conditions: read-out: Ki (half maximal inhibitory concentration); Ki50
T1 construct: gene AQP1; 304 aa membrane protein
T1 sequence (C4PYI6 1-304): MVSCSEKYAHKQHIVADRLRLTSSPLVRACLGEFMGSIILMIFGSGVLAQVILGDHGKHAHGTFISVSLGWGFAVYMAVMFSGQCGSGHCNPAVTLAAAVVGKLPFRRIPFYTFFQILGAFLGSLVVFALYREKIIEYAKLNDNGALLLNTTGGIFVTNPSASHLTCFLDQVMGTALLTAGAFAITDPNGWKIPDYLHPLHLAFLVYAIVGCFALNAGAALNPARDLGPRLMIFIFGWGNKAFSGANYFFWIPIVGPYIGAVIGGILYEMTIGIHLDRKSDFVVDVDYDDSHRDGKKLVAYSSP

[1] = substrate: C[C@H](O)C(=O)O; experiment: cells, lysate or membranes; assay type: cell-based, Schistosoma mansoni; conditions: 0.1-100 mM lactate; labelled compound; non-injected oocyte values subtracted

Question: With O=C(CCc1ccc(O)cc1)c1c(O)cc(O)cc1O [phloretin] as the molecule, how does the IC50 (SmAQP) read?
Answer: 22 µM

B1: SmAQP (Schistosoma mansoni) (protein)
chain: T1 sequence (C4PYI6 1-304)
notes: 304 aa membrane protein
Question: For B1, which Km [1] is on record?
Answer: 41 ± 5.8 mM
